{"source": "patent US20110196000A1", "about": "“Use of succinate dehydrogenase (SDH) inhibitors in the treatment of plant species from the family of the true grasses” (Bayer CropScience AG, priority 2010, published 2011)", "format_in_all_cases": "in vivo", "key": {"[1]": {"test_system": "wheat variety Ritmo", "assay": "Plot trial in Germany: green leaf area by visual scoring", "settings": "sprays at BBCH 39 and 59", "experimental": "In Germany a plot trial was set up with the wheat variety Ritmo in order to investigate the effect of bixafen on the physiology, morphology and abiotic stress tolerance of wheat plants under realistic agricultural conditions. The products under test were applied to the plants, in the form of sequential spray sequences (BBCH 39 and 59). The spray volume was 400 l of water per hectare. In each trial component, 5 repetitions were carried out. [table] The duration of green coloration of the leaf area was captured by regular visual scoring of the fraction of green leaf area."}, "[2]": {"test_system": "wheat variety Ritmo", "assay": "Plot trial: chlorophyll content of leaves (pigment extraction method of Ziegler and Ehle)"}, "[3]": {"test_system": "wheat variety Ritmo", "assay": "Plot trial: yield components", "settings": "sprays at BBCH 39 and 59"}, "[4]": {"settings": "7 days after second fungicide application"}, "[5]": {"settings": "14 days after second fungicide application"}, "[6]": {"settings": "21 days after second fungicide application"}, "[7]": {"settings": "28 days after second fungicide application"}, "[8]": {"settings": "35 days after second fungicide application"}, "[9]": {"settings": "42 days after second fungicide application"}}, "data": [{"molecule": "O=C(Nc1ccccc1-c1ccc(Cl)cc1)c1cccnc1Cl", "note": "[Boscalid, 2-chloro-N-(4′-chlorobiphenyl-2-yl)nicotinamide]", "values": [{"measurement": "green leaf area of the flag leaf", "setting": "[1]; [4]", "value": 96.0, "unit": "% leaf area"}, {"measurement": "green leaf area of the second-from-top leaf (F-1)", "setting": "[1]; [4]", "value": 94.4, "unit": "% leaf area"}, {"measurement": "green leaf area of the third-from-top leaf (F-2)", "setting": "[1]; [4]", "value": 90.3, "unit": "% leaf area"}, {"measurement": "green leaf area of the flag leaf", "setting": "[1]; [5]", "value": 95.5, "unit": "% leaf area"}, {"measurement": "green leaf area of the second-from-top leaf (F-1)", "setting": "[1]; [5]", "value": 91.8, "unit": "% leaf area"}, {"measurement": "green leaf area of the third-from-top leaf (F-2)", "setting": "[1]; [5]", "value": 85.8, "unit": "% leaf area"}, {"measurement": "green leaf area of the flag leaf", "setting": "[1]; [6]", "value": 86.1, "unit": "% leaf area"}, {"measurement": "green leaf area of the second-from-top leaf (F-1)", "setting": "[1]; [6]", "value": 74.7, "unit": "% leaf area"}, {"measurement": "green leaf area of the third-from-top leaf (F-2)", "setting": "[1]; [6]", "value": 61.5, "unit": "% leaf area"}, {"measurement": "green leaf area of the flag leaf", "setting": "[1]; [7]", "value": 73.6, "unit": "% leaf area"}, {"measurement": "green leaf area of the second-from-top leaf (F-1)", "setting": "[1]; [7]", "value": 60.0, "unit": "% leaf area"}, {"measurement": "green leaf area of the third-from-top leaf (F-2)", "setting": "[1]; [7]", "value": 41.0, "unit": "% leaf area"}, {"measurement": "green leaf area of the flag leaf", "setting": "[1]; [8]", "value": 43.2, "unit": "% leaf area"}, {"measurement": "green leaf area of the second-from-top leaf (F-1)", "setting": "[1]; [8]", "value": 25.5, "unit": "% leaf area"}, {"measurement": "green leaf area of the third-from-top leaf (F-2)", "setting": "[1]; [8]", "value": 4.6, "unit": "% leaf area"}, {"measurement": "green leaf area of the flag leaf", "setting": "[1]; [9]", "value": 7.0, "unit": "% leaf area"}, {"measurement": "green leaf area of the second-from-top leaf (F-1)", "setting": "[1]; [9]", "value": 0, "unit": "% leaf area"}, {"measurement": "green leaf area of the third-from-top leaf (F-2)", "setting": "[1]; [9]", "value": 0, "unit": "% leaf area"}, {"measurement": "green leaf area of the second-from-top leaf (F-1)", "setting": "[1]; 49 days after second fungicide application", "value": 0, "unit": "% leaf area"}, {"measurement": "Chlorophyll content", "setting": "[2]; BBCH 75 (mature milk), leaf F", "value": 1597, "unit": "µg/g"}, {"measurement": "Chlorophyll content", "setting": "[2]; BBCH 75 (mature milk), leaf F-1", "value": 1505, "unit": "µg/g"}, {"measurement": "Chlorophyll content", "setting": "[2]; BBCH 75 (mature milk), leaf F-2", "value": 826, "unit": "µg/g"}, {"measurement": "Chlorophyll content", "setting": "[2]; BBCH 85 (mature dough), leaf F", "value": 188, "unit": "µg/g"}, {"measurement": "Chlorophyll content", "setting": "[2]; BBCH 85 (mature dough), leaf F-1", "value": 160, "unit": "µg/g"}, {"measurement": "Chlorophyll content", "setting": "[2]; BBCH 85 (mature dough), leaf F-2", "value": 110, "unit": "µg/g"}, {"measurement": "Ears/m^2", "setting": "[3]", "value": 444}, {"measurement": "Harvest Index", "setting": "[3]", "value": 58.6}, {"measurement": "Straw", "setting": "[3]", "value": 514, "unit": "g m^−2"}, {"measurement": "TKM (thousand-kernel mass)", "setting": "[3]", "value": 44.6, "unit": "g"}, {"measurement": "Yield", "setting": "[3]", "value": 7.8, "unit": "t ha^−1"}]}]}
